{
  "source": "patent US20050026873A1",
  "about": "“Type-I methionyl aminopeptidases inhibitors in antibacterial targeting” (priority 2003, published 2005)",
  "molecules": {"B1": {"name": "wild-type EcMetAP (Escherichia coli K-12) (protein)", "chain": "MAISIKTPEDIEKMRVAGRLAAEVLEMIEPYVKPGVSTGELDRICNDYIVNEQHAVSACLGYHGYPKSVCISINEVVCHGIPDDAKLLKDGDIVNIDVTVIKDGFHGDTSKMFIVGKPTIMGERLCRITQESLYLALRMVKPGINLREIGAAIQKFVEAEGFSVVREYCGHGIGRGFHEEPQVLHYDSRETNVVLKPGMTFTIEPMVNAGKKEIRTMKDGWTVKTKDRSLSAQYEHTIVVTDNGCEILTLRKDDTIPAIISHDE"}},
  "key": {"[1]": {"target": "T1, wild-type EcMetAP-I (Escherichia coli, UniProt P0AE18)", "T1 sequence (P0AE18 1-264)": "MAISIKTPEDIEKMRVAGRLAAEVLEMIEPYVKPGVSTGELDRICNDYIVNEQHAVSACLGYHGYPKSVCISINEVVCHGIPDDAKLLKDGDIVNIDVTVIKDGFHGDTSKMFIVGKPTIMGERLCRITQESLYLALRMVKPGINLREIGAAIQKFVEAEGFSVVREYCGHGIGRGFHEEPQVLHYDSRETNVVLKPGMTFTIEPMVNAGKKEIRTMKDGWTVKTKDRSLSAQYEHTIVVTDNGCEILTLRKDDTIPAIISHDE", "test": "Reaction of wild-type EcMetAP-I with Inhibitor 1 and Inhibitor 2, catalytic activity", "format": "biochemical, E. coli", "details": "reaction for up to 12 hours", "experimental": "(§1) Since only C59 appears to be accessible for covalent modification, two potential inhibitors (Inhibitor 1 and Inhibitor 2, as depicted in FIG. 10) were prepared based on molecular modeling, one of which contains a good leaving group (I^−) and should be susceptible to nucleophilic attack while the second will not undergo nucleophilic addition."}, "[2]": {"target": "T2, PjMetAP-II (Pyrococcus furiosus, UniProt P56218)", "test": "Reaction of type-II MetAP with Inhibitor 1 and Inhibitor 2, catalytic activity", "format": "biochemical", "details": "reaction for up to 12 hours", "experimental": "as §1"}, "[3]": {"target": "T3, EcMetAP-I (Escherichia coli, UniProt P0AE18)", "T3 sequence (P0AE18 1-264)": "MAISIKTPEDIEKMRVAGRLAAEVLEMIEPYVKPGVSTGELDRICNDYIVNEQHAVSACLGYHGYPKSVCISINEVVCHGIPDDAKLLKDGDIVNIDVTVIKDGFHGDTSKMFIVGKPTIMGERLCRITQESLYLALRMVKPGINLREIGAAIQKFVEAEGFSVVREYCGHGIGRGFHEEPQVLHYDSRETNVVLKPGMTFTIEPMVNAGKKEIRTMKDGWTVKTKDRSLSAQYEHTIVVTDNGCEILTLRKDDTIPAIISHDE", "test": "MALDI-TOF analysis of EcMetAP-I with and without Inhibitor 1", "format": "binding, E. coli", "experimental": "Matrix-Assisted Laser Desorption Ionization-Time of Flight (MALDI-TOF) spectrometric analysis was performed on EcMetAP-I in both the presence and absence of Inhibitor 1."}, "[4]": {"target": "T4, C59A EcMetAP (Escherichia coli, UniProt P0AE18, C59A)", "T4 construct": "made in house", "test": "DTNB inactivation of C59A mutant enzyme", "format": "biochemical, E. coli", "details": "10 μM DTNB", "experimental": "(§2) Since at least one surface accessible cysteine residue, in addition to Cys59 and Cys70, exists in EcMetAP-I, reaction of DTNB with other residues cannot be ruled out. In order to circumvent this problem, both the C59A and C70A EcMetAP-I mutant enzymes were prepared and purified using the QuikChange Site-directed Mutagenesis Kit (Stratagene) and each mutation was verified by nucleotide sequencing. Both mutant enzymes bind one equivalent of Co(II) or Fe(II) tightly, based on ICP-AES analysis, which is identical to wild-type EcMetAP, and their kinetic parameters are listed below. […] Moreover, the Km values for both Co(II)— and Fe(II)-loaded EcMetAP C59A and C70A double and quadruple, respectively."}, "[5]": {"target": "T2, PjMetAP-II", "test": "DTNB inactivation of type-II MetAP, identical experiments", "format": "biochemical", "details": "even after several hours"}, "[6]": {"target": "T5, C70A EcMetAP (Escherichia coli, UniProt P0AE18, C70A)", "T5 construct": "made in house", "test": "DTNB inactivation of C70A mutant enzyme", "format": "biochemical, E. coli", "details": "compared with wild-type", "experimental": "as §2"}, "[7]": {"target": "HsMetAP type-II enzyme (Homo sapiens, UniProt P50579)", "test": "DTNB effect on catalytic activity of HsMetAP type-II", "format": "biochemical", "details": "200 μM DTNB"}, "[8]": {"target": "T3, EcMetAP-I", "test": "DTNB inactivation of EcMetAP-I, hydrolysis of MP-p-NA", "format": "biochemical, E. coli", "details": "200 μM DTNB, Co(II)-loaded EcMetAP-I, strict anaerobic conditions, pH 7.5, MP-p-NA hydrolysis", "experimental": "In order to determine if Cys59 and Cys70 are involved in substrate recognition and binding, it was examined if the cysteine-specific chemical modification reagent, 5,5′-dithio-bis(2-nitrobenzoic acid) (DTNB) inhibits the hydrolysis of methionylprolyl-p-nitroanilide (MP-p-NA) by EcMetAP. A 200 μM solution of DTNB was prepared in 50 mM HEPES buffer, pH 7.5, […] and added to a […] sample of Co(II)-loaded EcMetAP-I under strict anaerobic conditions."}, "[9]": {"target": "T5, C70A EcMetAP", "test": "Kinetic constants towards MGMM, C70A mutant", "format": "biochemical, E. coli", "details": "30° C., pH 7.5", "experimental": "as §2"}, "[10]": {"target": "T4, C59A EcMetAP", "test": "Kinetic constants towards MGMM, C59A mutant", "format": "biochemical, E. coli", "details": "30° C., pH 7.5", "experimental": "as §2"}, "[11]": {"substrate": "CSCC[C@H](NC(=O)[C@H](CCSC)NC(=O)CNC(=O)[C@@H](N)CCSC)C(=O)O", "test": "Kinetic constants towards MGMM, wild-type enzyme", "format": "biochemical, E. coli", "details": "30° C., pH 7.5", "experimental": "as §2"}},
  "note": "Peptide text beside a SMILES is read from it.",
  "data": [
    {"molecule": "O=P(O)(O)CCCCI", "note": "[Inhibitor 1, 4-iodobutylphosphonic acid]", "values": [
      {"measurement": "effect on catalytic activity of EcMetAP-I", "setting": "[1]", "value": "complete and irreversible loss in catalytic activity"},
      {"measurement": "inhibition of type-II MetAP", "setting": "[2]", "value": "not significantly inhibited"},
      {"measurement": "shift in mass peak of EcMetAP-I upon reaction (addition)", "setting": "[3]; MALDI-TOF, enzyme alone 29,500±10", "value": 140, "unit": "mass units"},
      {"measurement": "mode of binding to EcMetAP-I", "setting": "[3]; via C59, concluded from MALDI-TOF", "value": "covalently bound"}
    ]},
    {"molecule": "O=C(O)c1cc(SSc2ccc([N+](=O)[O-])c(C(=O)O)c2)ccc1[N+](=O)[O-]", "note": "[DTNB, 5,5′-dithio-bis(2-nitrobenzoic acid)]", "values": [
      {"measurement": "inactivation rate", "setting": "[4]; compared with wild-type", "value": "slower rate"},
      {"measurement": "inactivation of the catalytic activity", "setting": "[4]; strict anaerobic conditions", "value": "complete inactivation"},
      {"measurement": "inactivation due to DTNB", "setting": "[5]", "value": "no inactivation"},
      {"measurement": "observed inactivation rate", "setting": "[6]", "value": "identical to wild-type enzyme"},
      {"measurement": "loss in catalytic activity", "setting": "[7]", "value": "no loss in catalytic activity"},
      {"measurement": "time until EcMetAP was completely inactive after addition of DTNB", "setting": "[8]", "value": 50, "unit": "min"}
    ]},
    {"molecule": "CSCC[C@H](NC(=O)[C@H](CCSC)NC(=O)CNC(=O)[C@@H](N)CCSC)C(=O)O", "note": "[MGMM] (H-MGMM-OH)", "values": [
      {"measurement": "Km", "setting": "[9]; Co(II)-loaded", "value": "10 ± 0.2", "unit": "mM"},
      {"measurement": "Km", "setting": "[9]; Fe(II)-loaded", "value": "11 ± 0.2", "unit": "mM"},
      {"measurement": "Km", "setting": "[10]; Co(II)-loaded", "value": "6.4 ± 0.2", "unit": "mM"},
      {"measurement": "Km", "setting": "[10]; Fe(II)-loaded", "value": "8 ± 0.2", "unit": "mM"}
    ]},
    {"molecule": "O=C(O)CCCCCP(=O)(O)O", "note": "[Inhibitor 2, 6-phosphonhexanoic acid]", "values": [
      {"measurement": "effect on catalytic activity of EcMetAP-I", "setting": "[1]", "value": "did not significantly alter"},
      {"measurement": "inhibition of type-II MetAP", "setting": "[2]", "value": "not significantly inhibited"}
    ]},
    {"molecule": "B1", "values": [
      {"measurement": "Km", "setting": "[11]; other: Co(II)-loaded", "value": "3.2 ± 0.1", "unit": "mM"},
      {"measurement": "Vmax", "setting": "[11]; other: Co(II)-loaded", "value": 39, "unit": "µmol/min/mg"},
      {"measurement": "kcat", "setting": "[11]; other: Co(II)-loaded", "value": 19.5, "unit": "s⁻¹"},
      {"measurement": "kcat/Km", "setting": "[11]; other: Co(II)-loaded", "value": 6100, "unit": "M⁻¹ s⁻¹"},
      {"measurement": "Km", "setting": "[11]; other: Fe(II)-loaded", "value": "2.0 ± 0.3", "unit": "mM"},
      {"measurement": "Vmax", "setting": "[11]; other: Fe(II)-loaded", "value": 55, "unit": "µmol/min/mg"},
      {"measurement": "kcat", "setting": "[11]; other: Fe(II)-loaded", "value": 28, "unit": "s⁻¹"},
      {"measurement": "kcat/Km", "setting": "[11]; other: Fe(II)-loaded", "value": 14000, "unit": "M⁻¹ s⁻¹"}
    ]}
  ]
}
